According to ChEMBL document CHEMBL5604063, “ASAP - DENV-2 NS2B-NS3 protease fluorescence dose response” (2024):
“And” between values parts separate entries of the source, which are not always exact repeats. Equal entries are not always repeated.

Legend:
Genome polyprotein [1] = molecular target: T1, Genome polyprotein (dengue virus type 2, UniProt P29990); assay type: functional, Thailand/16681/1984
Genome polyprotein [2] = molecular target: T1, Genome polyprotein; assay type: functional, Thailand/16681/1984; remark: listed apart in the source

T1 sequence (P29990 1346-1475 limits assumed): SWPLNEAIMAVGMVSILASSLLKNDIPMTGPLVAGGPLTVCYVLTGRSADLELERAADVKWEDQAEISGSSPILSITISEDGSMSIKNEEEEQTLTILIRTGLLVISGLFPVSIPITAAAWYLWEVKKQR
T1 sequence (P29990 1476-2093 limits assumed): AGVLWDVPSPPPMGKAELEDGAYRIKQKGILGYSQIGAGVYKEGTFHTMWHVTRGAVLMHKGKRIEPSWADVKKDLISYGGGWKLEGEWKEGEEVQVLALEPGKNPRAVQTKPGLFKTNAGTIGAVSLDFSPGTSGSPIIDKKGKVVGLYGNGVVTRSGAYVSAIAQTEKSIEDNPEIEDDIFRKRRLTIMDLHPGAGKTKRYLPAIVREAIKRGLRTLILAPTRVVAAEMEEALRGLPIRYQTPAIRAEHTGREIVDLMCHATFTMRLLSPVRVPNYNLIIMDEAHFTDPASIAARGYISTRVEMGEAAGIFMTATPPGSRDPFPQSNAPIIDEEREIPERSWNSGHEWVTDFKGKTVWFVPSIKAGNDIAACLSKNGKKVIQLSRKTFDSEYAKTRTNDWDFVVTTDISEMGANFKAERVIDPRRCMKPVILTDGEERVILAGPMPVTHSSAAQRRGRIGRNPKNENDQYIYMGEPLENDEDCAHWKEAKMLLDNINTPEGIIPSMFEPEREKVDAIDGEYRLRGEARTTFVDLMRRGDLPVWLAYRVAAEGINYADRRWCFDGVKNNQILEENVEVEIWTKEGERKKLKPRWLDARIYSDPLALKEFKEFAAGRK

SMILES	IC50 (Genome polyprotein [1])	IC50 (Genome polyprotein [2])
Cc1c(C(=O)Nc2cc(C3(C)OCCO3)ccn2)cc(C2CC2)n1C	> 99.5 µM	> 100 µM
O=C(Nc1cc2c(cc1Br)CNC2)c1cc(Cl)cc2[nH]ncc12	> 99.5 µM	> 100 µM
O=C(Nc1cc(-c2cccnc2)ccn1)c1nc(C2CC2)co1	> 99.5 µM	> 100 µM
O=C(Nc1ccc2c(c1)CNC2)c1cc(Cl)cc2[nH]c(-c3ccnn3C3CC3)nc12	25.2 µM	> 100 µM
Cn1cc(C(F)(F)F)nc1C(=O)Nc1cc(-c2cccnc2)ccn1	> 99.5 µM	> 100 µM
COCCNC(=O)[C@H](Nc1cccc([C@H]2CCOC2)c1)c1cc(Cl)cc2[nH]ncc12	> 99.5 µM	> 100 µM
O=C(Nc1ccc2c(c1)CNC2)c1cc(Cl)cc2[nH]c(-c3nc4c(s3)CCC4)nc12	16.4 µM	> 100 µM
O=C(Nc1ccc2c(c1)CNC2)c1ccc2c(c1)CCC2	> 99.5 µM	> 100 µM
O=C(Nc1ccc2c(c1)C(=O)OC2)c1cc(CC2CCNCC2)ccc1F	> 99.5 µM	> 100 µM
Cn1nc(C(=O)Nc2cc(-c3cccnc3)ccn2)cc1C1CC1	> 99.5 µM	> 100 µM
O=C(Nc1ccc2c(c1)CNC2)c1cc(Cl)cc2[nH]c(-c3ccc(F)cc3O)nc12	23.8 µM	60.1 µM
O=C1OCc2ccc(NC(=O)c3cccc4c3CNC4)cc21	> 99.5 µM	> 100 µM
CCOC(=O)c1csc([C@H]2CCCN2C(=O)Nc2ccc3c(c2)CNC3)n1	> 99.5 µM	> 100 µM
O=C1OCc2ccc(NC(=O)[C@H]3CNC4(CCCC4)C3)cc21	> 99.5 µM	> 100 µM
CNC(=O)[C@H](Nc1ccc2c(c1)CNC2)c1cccc2[nH]c(C(F)(F)F)nc12	> 99.5 µM	> 100 µM
Cc1c(C(=O)Nc2cc(-c3cccnc3)ccn2)cc(C(C)C)n1C	> 99.5 µM	> 100 µM
O=C(NCC(F)F)[C@H](Nc1ccc2c(c1)CNC2)c1cc(F)cc2[nH]ccc12	> 99.5 µM	> 100 µM
O=C(Nc1ccc2c(c1)CNC2)c1cc(Cl)cc2[nH]c(-c3c[nH]c(=O)c(Br)c3)nc12	12.5 µM	13.7 µM
Cc1c(C(=O)Nc2cc(-c3cccnc3)ccn2)cc(C2CCCCC2)n1C	> 99.5 µM	> 100 µM
c1cc([C@@H]2C[C@H]2c2ccc3c(c2)CNC3)c2cn[nH]c2c1	> 99.5 µM	> 100 µM
Cc1c(C(=O)Nc2cc(C3CCOCC3)ccc2F)cc(C2CC2)n1C	> 99.5 µM	> 100 µM
C[C@](N)(C(=O)Nc1ccc2c(c1)C(=O)OC2)c1cccs1	> 99.5 µM	> 100 µM
O=C(Nc1ccc2c(c1)S(=O)(=O)NC2)c1cc(Cl)cc2[nH]ncc12	> 99.5 µM	> 100 µM
Cc1c(C(=O)NCc2ccnc(OC3CCOCC3)c2)cc(C2CC2)n1C	> 99.5 µM	> 100 µM

SMILES	IC50 (Genome polyprotein [1])	IC50 (Genome polyprotein [2])
O=C1Cc2c(C(=O)Nc3ccc4c(c3)CNC4)ccnc2N1	> 99.5 µM	> 100 µM
Cc1c(C(=O)NCc2cccc(C3COC3)c2)cc(C2CC2)n1C	> 99.5 µM	> 100 µM
O=C(Nc1cc([C@H]2CCOC2)ccn1)c1cc(Cl)cc2c1CCC2	> 99.5 µM	> 100 µM
O=C(Nc1ccc2c(c1)C(=O)OC2)c1ccc2c(c1)CNC2	> 99.5 µM	> 100 µM
COc1ccc(-c2nc3c(C(=O)Nc4ccc5c(c4)CNC5)cc(Cl)cc3[nH]2)cc1	21.5 µM	39.5 µM and 40.3 µM
O=C(Nc1ccc2c(c1)C(=O)OC2)c1cccc(CC2CNC2)c1	> 99.5 µM	> 100 µM
O=C(Nc1cc(-c2cccnc2)ccn1)c1csc(C2CC2)n1	> 99.5 µM	> 100 µM
O=C(Nc1cc(Br)c2c(c1)CNC2)c1cc(F)cc2[nH]ncc12	40.4 µM	30.6 µM and 22.5 µM
O=C(Nc1ccc2c(c1)CNC2)c1cc(C(F)(F)F)c2cn[nH]c2n1	> 99.5 µM	> 100 µM
O=C(NCC(F)F)[C@H](Nc1ccc2c(c1)CNC2)c1cc(F)cc2[nH]ncc12	> 99.5 µM	78.2 µM
O=C1OCc2ccc(NC(=O)[C@H]3CCNC3)cc21	> 99.5 µM	> 100 µM
C=CC[C@H]1NCc2cc(N[C@H](C(=O)NC(C)C)c3cc(Cl)cc4[nH]ncc34)ccc21	63.9 µM	56.9 µM
CNC(=O)[C@H](Nc1cccc([C@H]2CCOC2)c1)c1cc(C2CC2)n(C)n1	> 99.5 µM	> 100 µM
NCc1cc(Cl)cc(C(=O)Nc2cc([C@H]3CCOC3)ccn2)c1	> 99.5 µM	> 100 µM
CC1=C(c2cc(NC(=O)c3cc(Cl)cc4[nH]ncc34)cc3c2CNC3)CCC1=O	> 99.5 µM	> 100 µM
Cc1c(C(=O)Nc2cc(-c3cccnc3)ccn2)cc(C(C)(C)C)n1C	> 99.5 µM	> 100 µM
Cn1c(C2CC2)cc(C(=O)Nc2cc(-c3cccnc3)ccn2)c1C1CC1	> 99.5 µM	> 100 µM
O=C1OCc2ccc(NC(=O)[C@H]3CNCc4[nH]ncc43)cc21	> 99.5 µM	> 100 µM
O=C(Nc1cc(-c2cccnc2)ccn1)c1cc(C2CC2)no1	> 99.5 µM	> 100 µM
O=C(Nc1cc2c(c(C3=CC[C@H](O)CC3)c1)CNC2)c1cc(Cl)cc2[nH]ncc12	69.5 µM	> 100 µM
Cn1nc(C2CC2)cc1C(=O)Nc1cc(-c2cccnc2)ccn1	> 99.5 µM	> 100 µM
CC(C)NC(=O)[C@H](Nc1ccc2c(c1)CNC2)c1cc(F)cc2[nH]ccc12	> 99.5 µM	> 100 µM
O=C(Nc1cc(-c2cccnc2)ccn1)c1cnc(C2CC2)s1	> 99.5 µM	> 100 µM
NS(=O)(=O)c1cc(F)cc(C(=O)Nc2ccc3c(c2)CNC3)c1	> 99.5 µM	> 100 µM

SMILES	IC50 (Genome polyprotein [1])	IC50 (Genome polyprotein [2])
CC1(C)C[C@H](C(=O)Nc2ccc3c(c2)C(=O)OC3)CCN1	> 99.5 µM	> 100 µM
Cc1nnc(SC[C@H]2CCCN2C(=O)Nc2ccc3c(c2)CNC3)s1	> 99.5 µM	> 100 µM
O=C(Nc1ccc2c(c1)CNC2)c1cccc2nc(O)ccc12	> 99.5 µM	47.3 µM and 4.98 µM
O=C1Cc2cc(C(=O)Nc3ccc4c(c3)CNC4)c(Cl)cc2N1	> 99.5 µM	35.9 µM and 22.7 µM
Cc1nc2ccc(C(=O)Nc3ccc4c(c3)CNC4)cc2s1	> 99.5 µM	> 100 µM
O=C(Nc1ccc2c(c1)CNC2)c1cc(F)cc2c1CCNC2	> 99.5 µM	> 100 µM
O=C(Nc1ccc2c(c1)CNC2)c1cc(Br)cc2c1nc1n2CCCC1	23.8 µM	47.5 µM and 35.2 µM
O=C(Nc1ccc2c(c1)CNC2)c1n[nH]c2ccc(F)cc12	> 99.5 µM	78.7 µM
O=C1Cc2cc(C(=O)Nc3ccc4c(c3)CNC4)ccc2N1	9.95 µM and 7.04 µM and 6.09 µM	> 100 µM
Fc1cc(CNc2ccc3c(c2)CNC3)c2cn[nH]c2c1	> 99.5 µM	> 100 µM
NCCC1(C(=O)Nc2ccc3c(c2)C(=O)OC3)CCCC1	> 99.5 µM	> 100 µM
O=C(Nc1cc(-c2cccnc2)ccn1)c1cc(C2CC2)[nH]n1	> 99.5 µM	> 100 µM
Cn1nc(C(=O)Nc2cc([C@H]3CCOC3)ccn2)cc1C1CC1	> 99.5 µM	> 100 µM
O=C1OCc2ccc(NC(=O)c3cc(F)cc4c3CCNC4)cc21	> 99.5 µM	> 100 µM
Cc1c(C(=O)Nc2cccc(C3CCOCC3)c2)cc(C2CC2)n1C	> 99.5 µM	> 100 µM
O=C1CCCc2cc(C(=O)Nc3ccc4c(c3)CNC4)ccc2N1	> 99.5 µM	> 100 µM
O=C(Nc1cc(-c2cccnc2)ccn1)c1coc(C2CC2)n1	> 99.5 µM	> 100 µM
N#Cc1cccc(-c2nc3c(C(=O)Nc4ccc5c(c4)CNC5)cc(Cl)cc3[nH]2)c1	1.76 µM and 2.66 µM	17.3 µM and 12.2 µM
CO[C@]1(C(=O)Nc2ccc3c(c2)C(=O)OC3)CCCNC1	> 99.5 µM	> 100 µM
Cc1c(C(=O)Nc2cc(-c3cccnc3)ccn2)cc(C2CCC2)n1C	> 99.5 µM	> 100 µM
O=C(Nc1cc(-c2cccnc2)ccn1)c1cc2n(n1)CC(F)(F)C2	> 99.5 µM	> 100 µM
O=C(Nc1ccc2c(c1)CNC2)c1cc(F)cc(-c2cnc(C3CC3)s2)c1	> 99.5 µM	> 100 µM
Cn1nc(C(F)(F)F)cc1C(=O)Nc1cc(-c2cccnc2)ccn1	> 99.5 µM	> 100 µM
